The record followed here is ChEMBL document CHEMBL1154198, “Chemical genetics of Plasmodium falciparum” (Nature, 2010).

Where only a bound is given, the exact number is not on record here.

Assay [1] deals with Plasmodium falciparum. In words: ST_JUDE: Plasmodium falciparum K1 EC50 (uM) as measured by SYBR green dye. The class given is functional, organism-based.
In assay [2] the test system is Plasmodium falciparum. The assay can be described thus: ST_JUDE: Plasmodium falciparum 3D7 EC50 (uM) as measured by SYBR green dye. The class given is functional, organism-based.

In general, EC50 refers to the midpoint of the concentration-response curve. A higher EC50 goes with a less potent agent.

For `COc1ccc(-n2c(N)c(C#N)c3nc4ccccc4nc32)cc1`, the EC50 in the assay on Plasmodium falciparum [1] was 1.61 µM; in the assay on Plasmodium falciparum [2] it was 0.487 µM.
With `CC(=O)N1CCc2c(sc(NC(=O)c3cc([N+](=O)[O-])ccc3Cl)c2C#N)C1`, the values for the EC50 in the assay with Plasmodium falciparum [1] and in the assay on Plasmodium falciparum [2] were 1.32 µM and 4.07 µM, respectively.
For `CC(C)(C)c1cc(C(=O)Cn2c(NCCO)nc3ccccc32)cc(C(C)(C)C)c1O` the same measures were above 15 µM and above 15 µM.
Take `Cc1nc2ccccc2c(=O)n1-c1cccc(NC(=O)c2ccc(C(F)(F)F)cc2)c1`: the EC50 in the assay with Plasmodium falciparum [1] and in the assay on Plasmodium falciparum [2] was above 15 µM each time.
For the compound `COc1cc(CNc2cc(Cl)ccc2C)cc(I)c1OC`, the EC50 in the assay on Plasmodium falciparum [1] was 3.17 µM; in the assay on Plasmodium falciparum [2] it was above 15 µM.
As for `Oc1ccc(Nc2nc(-c3ccccc3)c3cc(Br)ccc3n2)cc1`, the EC50 with Plasmodium falciparum [1] was 3.05 µM; in the assay with Plasmodium falciparum [2], above 15 µM.
For the compound `O=C(COc1cccc(Br)c1)N/N=C/c1ccc(Br)cc1`, the EC50 in the assay with Plasmodium falciparum [1] and with Plasmodium falciparum [2] was above 15 µM each time.
With `CCCCC(O)(c1ccc(OC)cc1)C(CN1CCCCC1)c1ccccc1` (configuration not stated), the EC50 was found to be 2.73 µM in the assay with Plasmodium falciparum [1] and 4.6 µM in the assay with Plasmodium falciparum [2].
For `CCOC(=O)C1=C(C)N=c2s/c(=C\c3cc(Cl)ccc3O)c(=O)n2C1c1ccc(OC)cc1` (configuration not stated) the same measures were above 15 µM and above 15 µM.
For `CC1CCN(Cc2c(O)ccc3ccccc23)CC1` the same measures were 0.492 µM and 0.368 µM.
As to `Cc1cccc2sc(N(Cc3cccnc3)C(=O)c3ccc(C#N)cc3)nc12`, the EC50 is 3.08 µM in the assay on Plasmodium falciparum [1] and above 15 µM in the assay with Plasmodium falciparum [2].
For `COc1ccc(C2C(C(=O)Nc3cc(OC)ccc3OC)c3ccccc3C(=O)N2C)cc1` (configuration not stated) the same measures were 6.96 µM and above 15 µM.
For the compound `Cc1ccccc1NC(=O)C1c2ccccc2C(=O)N(C2CCCC2)C1c1cccs1` (configuration not stated), the EC50 in the assay on Plasmodium falciparum [1] was determined as 4.34 µM; in the assay with Plasmodium falciparum [2], 2.82 µM.
Regarding `O=C(Cc1cccc(F)c1)N1CCC(=O)N(CC2CC2)CC1`, the EC50 in the assay with Plasmodium falciparum [1] and in the assay with Plasmodium falciparum [2] was above 15 µM each time.
On to `O=[N+]([O-])c1ccc(O)c(-c2cc(C(F)(F)F)nc(-c3ccccc3)n2)c1`, for which the EC50 in the assay with Plasmodium falciparum [1] worked out at 3.25 µM; in the assay with Plasmodium falciparum [2], 1.75 µM.
In the same order, the values of `COc1ccc(NC(=O)CSc2nc(-c3ccccc3Cl)ns2)c(OC)c1` are 4.59 µM and 5.43 µM.
As to `CCc1ccc(N(CC)C(=O)c2cc3cc4ccc(OC)cc4nc3o2)cc1`, the EC50 in the assay with Plasmodium falciparum [1] and in the assay on Plasmodium falciparum [2] was above 15 µM in each case.
Take `CCN(CC)CCNC(=O)c1ccc2c(c1)sc1nc(-c3ccccc3)cn12`: the results for the EC50 in the assay on Plasmodium falciparum [1] and with Plasmodium falciparum [2] were 1.5 µM and 1.03 µM, respectively.
With `O=C1c2ccccc2/C(=N/Nc2ccc([N+](=O)[O-])cc2)C1c1cc(Br)ccc1[N+](=O)[O-]` (configuration not stated), the EC50 in the assay with Plasmodium falciparum [1] came out at 3.57 µM; in the assay on Plasmodium falciparum [2] it was 6.75 µM.
For `CCc1cc(-c2[nH]ncc2-c2ccc(F)cc2)c(O)cc1OC` the same measures were above 15 µM and above 15 µM.
For `Cc1cccc(NC(c2ccccc2C)c2ccc3ccc(C)nc3c2O)n1` (configuration not stated) the same measures were 5.17 µM and 7.03 µM.
For `O=C(CC1N=C2c3ccccc3N=C(SCc3cccc(F)c3)N2C1=O)NCc1ccco1` (configuration not stated) the same measures were 2.01 µM and 2.31 µM.
Take `CCN(CC)CCNC(=O)c1ccc2c(c1)sc1nc(-c3ccc(C)cc3)cn12`: the EC50 with Plasmodium falciparum [1] stood at 4.83 µM; in the assay with Plasmodium falciparum [2] it was 1.65 µM.
In the same order, the values of `CCOc1cc(/C=N/N=C(N)N)ccc1OCc1ccccc1` are 6.56 µM and 0.867 µM.
In the same order, the values of `CN1CCN(c2ccc(-c3cccc(NC(=O)c4cccc(F)c4)c3)nn2)CC1` are above 15 µM and above 15 µM.
For `CN(C)CCCNc1c2c(nc3ccccc13)CCC2` the same measures were above 15 µM and above 15 µM.
`Cc1ccccc1-n1c(N)c(C#N)c2nc3ccccc3nc21`: the EC50 with Plasmodium falciparum [1] came to 4.25 µM; with Plasmodium falciparum [2], 1.64 µM.
For `O=C1C(Nc2ccc(Br)cc2)=C(N2CCOCC2)C(=O)c2ccccc21` the same measures were 0.377 µM and 1.79 µM.
For `Cc1cccc(CN2C(=O)/C(=C\c3ccccc3)Sc3ccc(C(=O)NCCN(C)C4CCCCC4)cc32)c1` the same measures were 3.75 µM and 1.78 µM.
In the same order, the values of `Cc1ccnc(NC(c2cccc(Cl)c2Cl)c2ccc3cccnc3c2O)c1` (configuration not stated) are 1.67 µM and 1.5 µM.
As for `CCOCCn1c(CN(Cc2ccccc2)Cc2ccccc2)nc2c1c(=O)n(C)c(=O)n2C`, the EC50 with Plasmodium falciparum [1] and in the assay with Plasmodium falciparum [2] was above 15 µM each time.
On to `CC(C)(C)C1CCc2onc(C(=O)Nc3cc(Br)ccc3O)c2C1` (configuration not stated), for which the EC50 came to 0.419 µM in the assay on Plasmodium falciparum [1] and 0.726 µM in the assay on Plasmodium falciparum [2].
`Cc1cc(O)nc(-n2nc(C)cc2NC(=O)c2cccc(C(F)(F)F)c2)n1`: the EC50 is 1.5 µM in the assay on Plasmodium falciparum [1] and above 15 µM in the assay with Plasmodium falciparum [2].
In the same order, the values of `COc1ccc(CCNC(=S)Nc2ccccc2Cl)cc1OC` are 1.36 µM and 1.29 µM.
For `O=C(Cc1ccc(Cl)cc1)Nc1ccc(-c2nc3ccccc3[nH]2)cc1` the same measures were above 15 µM and above 15 µM.
For `CCOC(=O)c1ccc(NC(=O)C2CCC(C(C)(C)C)CC2)cc1` (configuration not stated) the same measures were above 15 µM and above 15 µM.
In the case of `CC(C)/N=C1\C(=O)c2ccccc2C(O)=C1Cl`, the EC50 came out at 0.53 µM with Plasmodium falciparum [1] and 1.23 µM with Plasmodium falciparum [2].
For `Cc1cccc(-n2ccnc2SCC(=O)Nc2cccc(C(F)(F)F)c2)c1C`, the EC50 in the assay on Plasmodium falciparum [1] worked out at 1.81 µM; in the assay on Plasmodium falciparum [2], 0.836 µM.
As to `Cc1cc(N2CCN(C)CC2)nc(N2CCN(C(=O)c3ccc(C(C)(C)C)cc3)CC2)n1`, the EC50 in the assay with Plasmodium falciparum [1] and in the assay with Plasmodium falciparum [2] was above 15 µM in each case.
`CCc1ccc(C2C(C#N)=C(N)N(c3cccc(Cl)c3)C3=C2C(=O)CCC3)s1` (configuration not stated): the EC50 in the assay on Plasmodium falciparum [1] and in the assay with Plasmodium falciparum [2] was above 15 µM in each case.
Take `OCCNc1nc(Nc2ccc(Br)cc2)nc2ccccc12`: the EC50 worked out at 1.7 µM in the assay on Plasmodium falciparum [1] and 0.829 µM with Plasmodium falciparum [2].
As to `Cc1ccnc(NC(c2ccccc2F)c2ccc3cccnc3c2O)c1` (configuration not stated), the EC50 came to 1.5 µM in the assay with Plasmodium falciparum [1] and 1.86 µM in the assay on Plasmodium falciparum [2].
Take `Cc1ccc2nc(Nc3nc(O)c4ccccc4n3)nc(C)c2c1`: the EC50 came to 4.56 µM with Plasmodium falciparum [1] and 6.29 µM in the assay on Plasmodium falciparum [2].
For `CCCC(=O)NC(c1cccc([N+](=O)[O-])c1)c1ccc2cccnc2c1O` (configuration not stated) the same measures were 2.48 µM and 2.88 µM.
For `COc1ccc(OC)c2sc(N(Cc3cccnc3)C(=O)c3cccc(C)c3)nc12` the same measures were 2.33 µM and above 15 µM.
For `CCCCNc1ccc2cccc(O)c2n1` the same measures were 4.37 µM and above 15 µM.
For the compound `O=C1CC(c2ccc(C(F)(F)F)cc2)C2=C(CC(c3ccccc3Cl)CC2=O)N1` (configuration not stated), the results for the EC50 in the assay with Plasmodium falciparum [1] and in the assay with Plasmodium falciparum [2] were 0.828 µM and 1.66 µM, respectively.
With `CCCC(=O)NC(Nc1ccc(S(=O)(=O)Nc2cc(C)on2)cc1)(C(=O)OCC)C(F)(F)F` (configuration not stated), the EC50 in the assay on Plasmodium falciparum [1] came out at 5.22 µM; with Plasmodium falciparum [2], 1.85 µM.
For `C[N+]1(CCCCCCCCCCCO)CCCCC1` the same measures were above 15 µM and above 15 µM.
For `CCN(CC)c1cc(C)c2cc(NC(=O)c3cccc(F)c3)ccc2n1` the same measures were 8.08 µM and 1.99 µM.
For `CCN(CC)c1ccc(/C=N\Nc2ncc(F)c(N3CCOCC3)n2)c(O)c1` the same measures were 1.7 µM and 1.53 µM.
On to `Cc1ccc(Nc2cc(C)nc(N3CCN(C(=O)Nc4cccc(Cl)c4)CC3)n2)cc1`, for which the EC50 in the assay with Plasmodium falciparum [1] and in the assay on Plasmodium falciparum [2] was above 15 µM in each case.
Consider `O=[N+]([O-])c1ccc(C2N(Cc3ccccc3)CCN2Cc2ccccc2)cc1`, for which the EC50 with Plasmodium falciparum [1] and in the assay with Plasmodium falciparum [2] was above 15 µM throughout.
For `O=C(Nc1cccc(C(F)(F)F)c1)Nc1ccc(Cl)c(Cl)c1`, the EC50 in the assay on Plasmodium falciparum [1] was 0.738 µM; in the assay on Plasmodium falciparum [2] it was above 15 µM.
In the case of `CCN1CCN(CCCNC(=O)c2ccc3c(c2)sc2nc(-c4ccc(C)cc4)cn23)CC1`, the EC50 came to 1.89 µM in the assay with Plasmodium falciparum [1] and 1.14 µM in the assay on Plasmodium falciparum [2].
In the same order, the values of `O=[N+]([O-])c1ccc(C2Nc3c(O)ccc(Br)c3C3C=CCC32)cc1` (configuration not stated) are 2.71 µM and 7 µM.
For `Cc1c(Cl)c(C(F)(F)F)nn1CC(=O)Nc1cccc(C(F)(F)F)c1` the same measures were 4.43 µM and above 15 µM.
For `CC(C)Nc1c2ccccc2nc2ccccc12` the same measures were 4.07 µM and 2.54 µM.
Regarding `COc1ccc(N2CCN(C(CNC(=O)c3ccc(C(C)(C)C)cc3)c3ccco3)CC2)cc1` (configuration not stated), the EC50 with Plasmodium falciparum [1] is 1.51 µM; with Plasmodium falciparum [2], above 15 µM.
In the same order, the values of `Cc1ccc(NC(=O)Cn2c(C)c(C=O)c3ccccc32)cc1Cl` are 4.63 µM and above 15 µM.
For `CC(=O)c1ccc(Oc2c(F)c(F)nc(F)c2F)cc1` the same measures were above 15 µM and above 15 µM.
For `CCOc1c(Br)cc(C2C(C#N)=C(N)Oc3cc4c(cc32)OCO4)cc1OC` (configuration not stated), the concentration for a half-maximal effect (EC50) in the assay with Plasmodium falciparum [1] was determined as 2.73 µM; with Plasmodium falciparum [2] it was 2.32 µM.
For `COc1ccc2nc(N(Cc3cccnc3)C(=O)CCc3ccccc3)sc2c1` the same measures were 3.53 µM and above 15 µM.
In the same order, the values of `Cc1ccc(S(=O)(=O)Oc2ccc(/C=N/N=C(N)N)cc2)cc1` are above 15 µM and 1.18 µM.
In the case of `CCN1CCN(c2cc(C)c3cc(NC(=S)NCc4cc(OC)ccc4OC)ccc3n2)CC1`, the values for the EC50 in the assay with Plasmodium falciparum [1] and with Plasmodium falciparum [2] were 9.01 µM and 3.07 µM, respectively.
For `CCCc1cc(O)nc(-n2nc(C)cc2NC(=O)c2ccc(C(C)(C)C)cc2)n1` the same measures were 8.64 µM and above 15 µM.
Regarding `CCOc1cc(CN(C)Cc2nnc(SCc3ccccc3C)n2CC2CCCO2)ccc1OC` (configuration not stated), the figures for the EC50 in the assay with Plasmodium falciparum [1] and with Plasmodium falciparum [2] were 2.42 µM and 2.29 µM, respectively.
For `O=C(c1cccc(F)c1)N(Cc1cccnc1)c1nc2ccc(F)cc2s1` the same measures were 4.23 µM and above 15 µM.
In the same order, the values of `CC(C)Cc1cc(C(=O)NCC2Cc3cc(Cl)cc(-c4ccncc4)c3O2)no1` (configuration not stated) are 6.45 µM and above 15 µM.
As to `CCCCn1c(C)c(C(=O)OCC)c2cc(OC(C)=O)c(Br)cc21`, the EC50 is above 15 µM in the assay with Plasmodium falciparum [1] and 2.76 µM with Plasmodium falciparum [2].
In the same order, the values of `COc1ccc(Nc2cc(C)nc(Nc3ccc(NS(=O)(=O)c4cccc(Cl)c4)cc3)n2)cc1` are above 15 µM and 2.39 µM.
